From publication PMC10812557, “Progressive Design of a Ranatuerin-2 Peptide from Amolops wuyiensis: Enhancement of Bioactivity and In Vivo Efficacy” (Antibiotics, 2023)
Where “and” joins values, the source holds several entries; their conditions need not be identical. Equal values may be shown once. Read-outs that look alike come from different tables or passages of the source. Peptide text beside a SMILES is read from it.

Experiments:
PC-3 = type: cell-based, human; conditions: 24 h
Protocol: (§1) Five human cancer cell lines of non-small-cell lung cancer H838, human prostate carcinoma PC-3, human neuronal glioblastoma U251MG, human breast cancer cell MCF-7, and colorectal carcinoma HCT116 were used to detect the antiproliferative abilities of R2AW and its five analogues. According to the procedures in a previous article, cells (8000 cells/well) were seeded into the 96-well tissue culture plates and incubated at 37 °C with 5% CO2 overnight. The solutions of R2AW and its analogues at concentrations of 10^−4 M to 10^−9 M were prepared in the serum-free medium. Next, cells in each well were treated with 100 μL of each peptide solution for 24 h. Subsequently, 10 μL of 5 mg/mL MTT (3-(4, 5-Dimethylthiazol-2-yl-)-2, 5-Diphehyltetrazolium Bromide) was added to each well followed by 37 °C incubation for 2 h. After that, the liquid in each well was removed and 100 μL of DMSO was added to dissolve the purple formazan. The plate was placed on a shaking incubator for 10 min, and the absorbance was detected at 550 nm using a Synergy HT plate reader (Biotech, Minneapolis, MN, USA).

U251MG = type: cell-based, human; conditions: 24 h
Protocol: as §1

MCF-7 = type: cell-based, human; conditions: 24 h
Protocol: as §1

HCT116 = type: cell-based, human; conditions: 24 h
Protocol: as §1

H838 = type: cell-based, human; conditions: 24 h
Protocol: as §1

[1] = test system: P. aeruginosa (ATCC 9027); type: cell-based, Pseudomonas aeruginosa
Protocol: (§2) As a previous study described in detail, the ability of R2AW and its analogues to inhibit and eradicate the formation of biofilm was investigated. The MBIC is the lowest concentration which inhibits the formation of biofilm. The MBEC is the minimum concentration that eradicates biofilm. Six bacterial strains were used, as described above. Briefly, the bacteria were cultured and then diluted to 5 × 10^5 CFU/mL. In MBIC assays, 1 μL of each concentration of R2AW and its analogues (ranging from 512 × 10^2 μM to 100 μM) was mixed with 99 μL of diluted bacterial suspension in a 96-well plate for 16-20 h at 37 °C. As for MBEC assays, 100 μL of cultured bacteria were seeded in a 96-well plate and incubated on the shaking incubator at 37 °C overnight for biofilm formation. Subsequently, each well was rinsed twice with 100 μL sterile PBS to remove planktonic cells, and then replaced with 100 μL of each concentration (ranging from 512 μM to 1 μM) of peptides. After 24 h incubation, the biofilm was washed twice with 100 μL of PBS and fixed with methanol. Next, the same volume of 0.1% crystal violet solution (Sigma-Aldrich, Gillingham, UK) was added to each well to stain the biofilm. After that, 100 μL of 30% of acetic acid (Sigma-Aldrich, Gillingham, UK) was transferred to each well for dissolution. The solutions were transferred into a new 96-well plate and the absorbances of wells was monitored using a Synergy HT plate reader set to 595 nm.

E. faecium (NTCC 12697) [2] = type: cell-based
Protocol: as §2

[3] = test system: K. pneumoniae (ATCC 43816); type: cell-based, Klebsiella pneumoniae
Protocol: as §2

[4] = test system: Galleria mellonella larvae; test: Toxicity in waxworms with no MRSA treatment; type: in vivo; conditions: 10 mg/kg
E. coli (ATCC 8739) [5] = type: cell-based, Escherichia coli
Protocol: as §2

MRSA (NCTC 12493) [6] = type: cell-based, methicillin-resistant Staphylococcus aureus; conditions: NCTC 12493
Protocol: as §2

E. faecium (NTCC 12697) [7] = test: microbe, parasite or virus in culture; type: cell-based; conditions: NTCC 12697, 18 h
From the text: (§3) The MIC and MBC assays were used to assess the inhibitory activities of all 5 analogues of R2AW on the growth of planktonic microorganisms. The MIC is the lowest concentration that prevents the viable growth of bacteria. The MBC is the lowest concentration that results in bacterial death. Six microorganisms were used to detect the antimicrobial activity of peptides, including Gram-positive bacteria S. aureus (NCTC 10788), MRSA (NCTC 12493), Enterococcus faecalis (E. faecalis) (NCTC 12697), Gram-negative bacteria E. coli […], Klebsiella pneumoniae (K. pneumoniae) (ATCC 43816), and Pseudomonas aeruginosa (P. aeruginosa) (ATCC 9027). According to the assay described previously, the microorganisms were inoculated at 37 °C overnight and diluted to 5 × 10^5 CFU/mL after reaching the logarithmic growth period. The peptide stock solution at the concentration of 512 × 10^2 μM was prepared and diluted to 100 μM by a 2-fold dilution. One μL of each concentration of peptide solution was incubated with 99 μL of bacterial subculture in the 96-well plate for 18 h at 37 °C. The absorbance was determined at a wavelength of 550 nm using a Synergy HT plate reader (Bio Tek, Washington, DC, USA). […] As for those wells that were clearly visible, 20 μL of the solution was dropped onto the Mueller Hinton agar (MHA) dish and then incubated at 37 °C overnight. The lowest concentration with no colony growth was determined as the MBC.

S. aureus (NCTC 10788) [8] = test: microbe, parasite or virus in culture; type: cell-based; conditions: NCTC 10788, 18 h
From the text: as §3

MRSA (NCTC 12493) [9] = test: microbe, parasite or virus in culture; type: cell-based; conditions: MRSA (NCTC 12493)
From the text: as §3

[10] = test system: P. aeruginosa (ATCC 9027); type: cell-based
From the text: as §3

[11] = test system: K. pneumoniae (ATCC 43816); type: cell-based
From the text: as §3

E. coli (ATCC 8739) [12] = type: cell-based
From the text: as §3

[13] = test system: five human cancer cell lines; type: cell-based; conditions: 24 h
Protocol: as §1

S. aureus (NCTC 10788) [14] = type: cell-based, Staphylococcus aureus
Protocol: as §2

E. coli (ATCC 8739) [15] = test: Time–killing assay; type: cell-based, Escherichia coli; conditions: peptide control
Protocol: (§4) S. aureus (NCTC 10788), E. coli (ATCC 8739), MRSA (NCTC 12493), and P. aeruginosa (ATCC 9027) were used in this assay. Treatments of 2 × MIC, 1 × MIC, and 0.5 × MIC of [Lys^4,19, Leu^20]R2AW(1-22)-NH2 were prepared and mixed with 198 μL of diluted bacteria (5 × 10^5 CFU/mL). At each time point (0, 10, 20, 30, 60, 90, 120, and 180 min), 10 μL of peptide and bacteria mixture was dropped onto the MHA plate. After overnight incubation, the number of bacterial colonies was calculated. The CFU/mL could be calculated using the formula CFU/mL = (Number of colonies × dilution factor)/volume of culture.

[16] = test system: P. aeruginosa (ATCC 9027); test: Time–killing assay; type: cell-based, Pseudomonas aeruginosa; conditions: peptide control
Protocol: as §4

CSCC[C@H](NC(=O)[C@H](Cc1ccccc1)NC(=O)CN)C(=O)N[C@@H](CCCCN)C(=O)N[C@H](C(=O)N[C@@H](C)C(=O)N[C@@H](CCCCN)C(=O)N[C@@H](CC(N)=O)C(=O)N[C@H](C(=O)N[C@@H](C)C(=O)N[C@@H](CCCCN)C(=O)N[C@@H](CC(N)=O)C(=O)N[C@H](C(=O)N[C@@H](C)C(=O)N[C@@H](C)C(=O)N[C@H](C(=O)N[C@@H](CC(C)C)C(=O)N[C@@H](CC(C)C)C(=O)N[C@@H](CCCCN)C(=O)N[C@@H](CC(C)C)C(=O)N[C@@H](CC(C)C)C(=O)N[C@@H](CCCCN)C(N)=O)[C@@H](C)O)C(C)C)C(C)C)[C@@H](C)O [[Lys^4,19, Leu^20]R2AW(1-22)-NH2] (H-GFMKTAKNVAKNVAATLLKLLK-NH2)
IC50 (PC-3): 3.67 µM | IC50 (U251MG): 12.4 µM | IC50 (MCF-7): 10.6 µM | IC50 (HCT116): 9.28 µM | IC50 (H838): 7.83 µM | MBEC [1]: 512 µM | MBIC [1]: 16 µM | MBEC (E. faecium (NTCC 12697) [2]): > 512 µM | MBIC (E. faecium (NTCC 12697) [2]): 8 µM | MBEC [3]: 256 µM | MBIC [3]: 8 µM | death of larvae with no MRSA treatment [4]: no death | MBEC (E. coli (ATCC 8739) [5]): 256 µM | MBIC (E. coli (ATCC 8739) [5]): 4 µM | MBEC (MRSA (NCTC 12493) [6]): > 512 µM | MBIC (MRSA (NCTC 12493) [6]): 4 µM | MBC (E. faecium (NTCC 12697) [7]): 18.9 µg/mL | MIC (E. faecium (NTCC 12697) [7]): 9.4 µg/mL | MBC (S. aureus (NCTC 10788) [8]): 4.7 µg/mL | MIC (S. aureus (NCTC 10788) [8]): 4.7 µg/mL | MBC (MRSA (NCTC 12493) [9]): 4.7 µg/mL | MIC (MRSA (NCTC 12493) [9]): 4.7 µg/mL | MBC ([10]; ATCC 9027, 18 h): 37.7 mg/L | MIC ([10]; ATCC 9027, 18 h): 18.9 mg/L | MBC ([11]; ATCC 43816, 18 h): 18.9 mg/L | MIC ([11]; ATCC 43816, 18 h): 9.4 mg/L | MBC (E. coli (ATCC 8739) [12]; ATCC 8739, 18 h): 9.4 mg/L | MIC (E. coli (ATCC 8739) [12]; ATCC 8739, 18 h): 4.7 mg/L | IC50 [13]: 3.67 to 12 µM | MBEC (S. aureus (NCTC 10788) [14]): 256 µM | MBIC (S. aureus (NCTC 10788) [14]): 4 µM

Colistin [reference compound]
MBC ([10]; P. aeruginosa (ATCC 9027)): 2.3 mg/L and 2 µM | MIC ([10]; P. aeruginosa (ATCC 9027)): 1.2 mg/L and 1 µM | MBC ([11]; K. pneumoniae (ATCC 43816)): 18.5 mg/L and 16 µM | MIC ([11]; K. pneumoniae (ATCC 43816)): 18.5 mg/L and 16 µM | MBC (E. coli (ATCC 8739) [12]; E. coli (ATCC 8739)): 0.3 mg/L and 0.25 µM | MIC (E. coli (ATCC 8739) [12]; E. coli (ATCC 8739)): 0.1 mg/L and 0.125 µM | killing effect in time–killing curve (E. coli (ATCC 8739) [15]): rapid bacterial killing effect | killing effect in time–killing curve [16]: rapid bacterial killing effect
